Legend:
Test in all cases: relative viability (nuclei count vs DMSO), 5 days (fraction); higher = more cells survive
Imatinib + Vorinostat = compound: Cc1ccc(NC(=O)c2ccc(CN3CCN(C)CC3)cc2)cc1Nc1nccc(-c2cccnc2)n1 [Imatinib] + O=C(CCCCCCC(=O)Nc1ccccc1)NO [Vorinostat] (partner 1 µM)
How it was run: (§1)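 Nuclei were stained with Hoechst during a one-step fixation (final 0.05% Triton X-100, 1% formaldehyde, 1 ug/ml Hoechst) carried out 5 days after dosing, then counted on 4× images. The cells, lung cancer lines in 1536-well plates, had been dosed by pin tool the day after seeding with one drug alone or a fixed anchor-drug dose plus five library-drug doses (not always all listed) in √10 steps. Relative viability is the nuclei count in treated wells divided by that in vehicle wells, and each value is the median of duplicate plates.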

Imatinib + Crizotinib = compound: Cc1ccc(NC(=O)c2ccc(CN3CCN(C)CC3)cc2)cc1Nc1nccc(-c2cccnc2)n1 [Imatinib] + C[C@@H](Oc1cc(-c2cnn(C3CCNCC3)c2)cnc1N)c1c(Cl)ccc(F)c1Cl [Crizotinib] (partner 1 µM)
How it was run: as §1

Imatinib + Palbociclib = compound: Cc1ccc(NC(=O)c2ccc(CN3CCN(C)CC3)cc2)cc1Nc1nccc(-c2cccnc2)n1 [Imatinib] + CC(=O)c1c(C)c2cnc(Nc3ccc(N4CCNCC4)cn3)nc2n(C2CCCC2)c1=O [Palbociclib] (partner 0.5 µM)
How it was run: as §1

Imatinib + Navitoclax = compound: Cc1ccc(NC(=O)c2ccc(CN3CCN(C)CC3)cc2)cc1Nc1nccc(-c2cccnc2)n1 [Imatinib] + CC1(C)CCC(c2ccc(Cl)cc2)=C(CN2CCN(c3ccc(C(=O)NS(=O)(=O)c4ccc(N[C@H](CCN5CCOCC5)CSc5ccccc5)c(S(=O)(=O)C(F)(F)F)c4)cc3)CC2)C1 [Navitoclax] (partner 0.5 µM)
How it was run: as §1

| Cell Line | relative viability (Imatinib + Vorinostat; first compound 0.02 µM) | relative viability (Imatinib + Vorinostat; first compound 0.06325 µM) | relative viability (Imatinib + Vorinostat; first compound 0.2 µM) | relative viability (Imatinib + Vorinostat; first compound 0.6325 µM) | relative viability (Imatinib + Vorinostat; first compound 2 µM) | relative viability (Imatinib + Crizotinib; first compound 0.02 µM) | relative viability (Imatinib + Crizotinib; first compound 0.06325 µM) | relative viability (Imatinib + Crizotinib; first compound 0.6325 µM) | relative viability (Imatinib + Crizotinib; first compound 2 µM) | relative viability (Imatinib + Palbociclib; first compound 0.02 µM) | relative viability (Imatinib + Palbociclib; first compound 0.06325 µM) | relative viability (Imatinib + Palbociclib; first compound 0.2 µM) | relative viability (Imatinib + Palbociclib; first compound 0.6325 µM) | relative viability (Imatinib + Palbociclib; first compound 2 µM) | relative viability (Imatinib + Navitoclax; first compound 0.02 µM) | relative viability (Imatinib + Navitoclax; first compound 0.06325 µM) | relative viability (Imatinib + Navitoclax; first compound 0.6325 µM) | relative viability (Imatinib + Navitoclax; first compound 2 µM) | relative viability (Imatinib + Crizotinib; first compound 0.2 µM) | relative viability (Imatinib + Navitoclax; first compound 0.2 µM) |
| --- | --- | --- | --- | --- | --- | --- | --- | --- | --- | --- | --- | --- | --- | --- | --- | --- | --- | --- | --- | --- |
| NCI-H1651 | 0.603 | 0.49 | 0.631 | 0.547 | 0.548 | 0.916 | 0.775 | 0.855 | 0.891 | 0.478 | 0.543 | 0.564 | 0.492 | 0.543 | 1.34 | 1.21 | 1.05 | 1.13 | – | – |
| NCI-H727 | 1.28 | – | – | 1.14 | 1.34 | – | 0.853 | 0.845 | 0.792 | 0.577 | – | 0.599 | 0.569 | 0.601 | 0.324 | 0.398 | 0.412 | 0.417 | 0.944 | 0.4 |
| SK-MES-1 | – | 1.37 | 1.29 | – | 1.09 | 1.08 | 0.999 | 1.05 | 0.971 | 0.318 | 0.336 | 0.321 | 0.316 | 0.294 | 1.41 | 1.29 | 1.37 | 1.44 | 1.16 | 1.33 |
| BEN | 0.526 | 0.654 | 0.634 | 0.547 | 0.556 | 1.04 | 0.847 | 0.762 | 0.93 | 0.469 | 0.541 | 0.488 | 0.458 | 0.467 | 0.0684 | 0.0589 | 0.0553 | 0.0529 | 1 | 0.0665 |
| NCI-H2170 | 0.972 | 0.845 | 0.834 | 0.775 | 0.792 | 1.5 | 1.49 | 1.3 | 1.22 | 0.399 | 0.438 | 0.431 | 0.408 | 0.382 | 0.722 | 0.655 | 0.643 | 0.633 | 1.52 | 0.672 |
| NCI-H1975 | 0.698 | 0.741 | 0.73 | 0.686 | 0.686 | 1.1 | 1.16 | 0.916 | 1.07 | 0.662 | 0.49 | 0.566 | 0.631 | 0.563 | 1.11 | 1.27 | 1.03 | 1.13 | 1.1 | 1.22 |
| LC-2-ad | 0.73 | – | 0.754 | 0.707 | 0.693 | 0.458 | – | 0.434 | 0.384 | 0.543 | – | 0.559 | 0.5 | 0.508 | 0.481 | 0.361 | 0.707 | 0.468 | 0.502 | 0.514 |
| NCI-H647 | 0.459 | 0.888 | 0.593 | 0.549 | 0.619 | 1.1 | 1.36 | 1.12 | 1.06 | 0.532 | 0.39 | 0.402 | 0.375 | 0.407 | 1.42 | 1.36 | 1.12 | 1.17 | 1.45 | 1.14 |
| COR-L23 | 0.523 | 0.519 | 0.424 | 0.399 | 0.41 | 0.807 | 0.73 | 0.685 | 0.632 | 0.329 | 0.226 | 0.303 | 0.31 | 0.297 | 1.11 | 1.32 | 1.04 | 1.03 | 0.809 | 1.5 |
| NCI-H23 | 0.686 | 0.669 | 0.578 | 0.453 | 0.488 | 0.573 | 0.712 | 0.374 | 0.398 | 0.455 | 0.66 | 0.521 | 0.467 | 0.479 | 1.04 | 0.916 | 0.738 | 0.87 | 0.584 | 1.1 |
| NCI-H1666 | 1.04 | 0.986 | 1.06 | 1.27 | 0.946 | 1.02 | 1.09 | 1.14 | 0.966 | 0.678 | 0.628 | 0.642 | 0.705 | 0.621 | – | 1.16 | 1.1 | 1.06 | 0.991 | 1.06 |
| PC-14 | 0.902 | 0.472 | 0.8 | 0.56 | 0.791 | 1.15 | 0.936 | 0.958 | 0.848 | 0.655 | 0.633 | 0.558 | 0.524 | 0.542 | 1.14 | 0.988 | 1.06 | 0.96 | 0.935 | 1.12 |
| NCI-H460 | 1.4 | 0.636 | 1.09 | 0.705 | 0.735 | 1.29 | 1.38 | 0.881 | 0.85 | 0.278 | 0.22 | 0.191 | 0.196 | 0.104 | 1.65 | 1.58 | 1.17 | 1.3 | 1.55 | 1.96 |
| CAL-12T | 0.854 | 0.69 | 0.828 | 0.78 | 0.711 | 0.715 | 0.696 | 0.624 | 0.776 | 0.374 | 0.412 | 0.535 | 0.496 | 0.444 | 1.44 | 1.32 | 1.38 | 0.974 | 1.17 | 1.21 |
| NCI-H3122 | 1.13 | 1.01 | 1.08 | – | 1.02 | 0.253 | 0.292 | 0.313 | 0.255 | 0.194 | 0.19 | 0.199 | 0.192 | 0.205 | – | 1.11 | 1.06 | 1.01 | 0.324 | 1.08 |
| LU99A | 0.564 | 0.455 | 0.471 | 0.559 | 0.564 | 0.53 | 0.735 | 0.536 | 0.532 | 0.394 | 0.424 | 0.411 | 0.413 | 0.454 | 0.905 | 0.788 | 1.08 | 0.855 | 0.534 | 0.807 |
| NCI-H2087 | 0.806 | – | 0.787 | 0.716 | – | 0.894 | 0.983 | 0.941 | 0.718 | 0.192 | – | 0.188 | 0.243 | – | 1.07 | 1.03 | 1.11 | 0.956 | 0.943 | 1.21 |

Reference: the supplement of paper PMC10307832
